Laboratory results from PubChem BioAssay AID1845197 (Molecular Pharmacology Branch, DTP, NCI, 2023).

System: 349418-098-R tumor spheroid viability
Experiment: Anticancer human tumor 349418-098-R patient-derived lung adenocarcinoma cell line growth inhibition
Settings: spheroids with HUVEC and MSC; for IC50: curve of first compound; for viability, T/C: stronger effect = lower value
How it was run: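 Single agents and combinations were tested on spheroids built from tumor cells plus HUVEC and hMSC, at half-log dilutions starting at or near clinical Cmax, else 10 microM; final DMSO 0.25% (v/v).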

[1] = second compound 0.003 µM, first compound 0.0316 µM
[2] = second compound 0.003 µM, first compound 0.1 µM
[3] = second compound 0.003 µM, first compound 0.316 µM
[4] = second compound 0.003 µM, first compound 1 µM
[5] = second compound 0.003 µM, first compound 3.16 µM
[6] = second compound 0.003 µM, first compound 10 µM
[7] = second compound 0.00949 µM, first compound 0.0316 µM
[8] = second compound 0.00949 µM, first compound 0.1 µM
[9] = second compound 0.00949 µM, first compound 0.316 µM
[10] = second compound 0.00949 µM, first compound 1 µM
[11] = second compound 0.00949 µM, first compound 3.16 µM
[12] = second compound 0.00949 µM, first compound 10 µM
[13] = second compound 0.03 µM, first compound 0.0316 µM
[14] = second compound 0.03 µM, first compound 0.1 µM
[15] = second compound 0.03 µM, first compound 0.316 µM
[16] = second compound 0.03 µM, first compound 1 µM
[17] = second compound 0.03 µM, first compound 3.16 µM
[18] = second compound 0.03 µM, first compound 10 µM
[19] = second compound 0.0949 µM, first compound 0.0316 µM
[20] = second compound 0.0949 µM, first compound 0.1 µM
[21] = second compound 0.0949 µM, first compound 0.316 µM
[22] = second compound 0.0949 µM, first compound 1 µM
[23] = second compound 0.0949 µM, first compound 3.16 µM
[24] = second compound 0.0949 µM, first compound 10 µM
[25] = second compound 0.3 µM, first compound 0.0316 µM
[26] = second compound 0.3 µM, first compound 0.1 µM
[27] = second compound 0.3 µM, first compound 0.316 µM
[28] = second compound 0.3 µM, first compound 1 µM
[29] = second compound 0.3 µM, first compound 3.16 µM
[30] = second compound 0.3 µM, first compound 10 µM
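Also: spheroids exposed to compound for 7 days before measurement.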
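For viability, T/C in this document: percent of vehicle control viability with 100% = DMSO-treated spheroids.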

SMILES	IC50 (second compound 0.003 µM)	IC50 (second compound 0.00949 µM)	IC50 (second compound 0.03 µM)	IC50 (second compound 0.0949 µM)	IC50 (second compound 0.3 µM)	viability, T/C [1]	viability, T/C [2]	viability, T/C [3]	viability, T/C [4]	viability, T/C [5]	viability, T/C [6]	viability, T/C [7]	viability, T/C [8]	viability, T/C [9]	viability, T/C [10]	viability, T/C [11]	viability, T/C [12]	viability, T/C [13]	viability, T/C [14]	viability, T/C [15]	other results
CC(C)n1c(=O)n(C)c2cnc3cc(F)c(-c4ccc(OCCCN5CCCCC5)nc4)cc3c21 + CC[C@@]1(O)C(=O)OCc2c1cc1n(c2=O)Cc2cc3c(CN(C)C)c(O)ccc3nc2-1	> 10000 nM	4930 nM	< 31.6 nM	< 31.6 nM	< 31.6 nM	96.9%	93.2%	93.8%	99.6%	100%	63.9%	67.6%	69.3%	66.2%	67.7%	63.4%	28.7%	24.3%	22%	22.2%	viability, T/C [16]: 22.7%; viability, T/C [17]: 27.8%; viability, T/C [18]: 17%; viability, T/C [19]: 7.03%; viability, T/C [20]: 9.49%; viability, T/C [21]: 9.54%; viability, T/C [22]: 9.81%; viability, T/C [23]: 11.7%; viability, T/C [24]: 12.4%; viability, T/C [25]: 5.01%; viability, T/C [26]: 4.88%; viability, T/C [27]: 5.74%; viability, T/C [28]: 6.26%; viability, T/C [29]: 8.16%; viability, T/C [30]: 8.82%
CC1COCCN1c1cc(-c2ccnn2C)c2ccnc(-c3ccn[nH]3)c2n1 (stereo not given) + CC[C@@]1(O)C(=O)OCc2c1cc1n(c2=O)Cc2cc3c(CN(C)C)c(O)ccc3nc2-1	79 nM	< 31.6 nM	< 31.6 nM	< 31.6 nM	< 31.6 nM	107%	35.1%	16%	15%	15.6%	14%	42.4%	20.4%	13.6%	16.2%	12.8%	12%	13.5%	11.5%	9.56%	viability, T/C [16]: 11.4%; viability, T/C [17]: 11.6%; viability, T/C [18]: 10.8%; viability, T/C [19]: 5.41%; viability, T/C [20]: 6.47%; viability, T/C [21]: 5.98%; viability, T/C [22]: 6.27%; viability, T/C [23]: 7.68%; viability, T/C [24]: 8.39%; viability, T/C [25]: 3.23%; viability, T/C [26]: 2.54%; viability, T/C [27]: 2.76%; viability, T/C [28]: 3.58%; viability, T/C [29]: 4.37%; viability, T/C [30]: 5.17%
COc1cc(C)[nH]c(=O)c1CN1CCc2c(Cl)cc(C(OC)C3COC3)c(Cl)c2C1=O (stereo not given) + CC[C@@]1(O)C(=O)OCc2c1cc1n(c2=O)Cc2cc3c(CN(C)C)c(O)ccc3nc2-1	> 10000 nM	> 10000 nM	5480 nM	< 31.6 nM	< 31.6 nM	108%	123%	104%	109%	109%	114%	104%	121%	100%	113%	97.1%	94.8%	89.7%	73.8%	65.6%	viability, T/C [16]: 71.8%; viability, T/C [17]: 60.1%; viability, T/C [18]: 40.5%; viability, T/C [19]: 19.4%; viability, T/C [20]: 17.1%; viability, T/C [21]: 9.77%; viability, T/C [22]: 16%; viability, T/C [23]: 13.4%; viability, T/C [24]: 8.01%; viability, T/C [25]: 5.42%; viability, T/C [26]: 4.95%; viability, T/C [27]: 4.96%; viability, T/C [28]: 3.5%; viability, T/C [29]: 4.11%; viability, T/C [30]: 5.21%
COc1ccc([C@@H](O)c2cc(-c3ncnc4cc(N5CCOCC5)ccc34)c(F)cc2Cl)nn1 + CC[C@@]1(O)C(=O)OCc2c1cc1n(c2=O)Cc2cc3c(CN(C)C)c(O)ccc3nc2-1	7870 nM	6180 nM	679 nM	< 31.6 nM	< 31.6 nM	103%	107%	106%	106%	89.2%	39%	90.1%	102%	106%	102%	82.8%	26.5%	69.8%	78.5%	60.4%	viability, T/C [16]: 43.9%; viability, T/C [17]: 26.1%; viability, T/C [18]: 18.9%; viability, T/C [19]: 18.4%; viability, T/C [20]: 11.6%; viability, T/C [21]: 14.2%; viability, T/C [22]: 13.7%; viability, T/C [23]: 11.4%; viability, T/C [24]: 9.78%; viability, T/C [25]: 4.47%; viability, T/C [26]: 3.97%; viability, T/C [27]: 4.59%; viability, T/C [28]: 4.78%; viability, T/C [29]: 4.77%; viability, T/C [30]: 3.94%
[2H]c1nc(C)nc([2H])c1-c1cc(NC[C@@H](C)c2cccc3c(C(=O)NC)ccnc23)ncn1 + CC[C@@]1(O)C(=O)OCc2c1cc1n(c2=O)Cc2cc3c(CN(C)C)c(O)ccc3nc2-1	> 10000 nM	> 10000 nM	7510 nM	< 31.6 nM	< 31.6 nM	96.3%	103%	97.9%	105%	102%	102%	93.7%	101%	98.5%	100%	102%	97.2%	78.9%	67.9%	75.5%	viability, T/C [16]: 71.1%; viability, T/C [17]: 53.9%; viability, T/C [18]: 48.7%; viability, T/C [19]: 13.9%; viability, T/C [20]: 15.4%; viability, T/C [21]: 11.2%; viability, T/C [22]: 13.1%; viability, T/C [23]: 7.36%; viability, T/C [24]: 6.4%; viability, T/C [25]: 4.73%; viability, T/C [26]: 5.56%; viability, T/C [27]: 4.91%; viability, T/C [28]: 4.06%; viability, T/C [29]: 4.8%; viability, T/C [30]: 3.56%
